From US9375434B2, “Antitumor effect potentiator composed of imidazooxazine compound” (Taiho Pharmaceutical Co., Ltd., priority 2012, dated 2016)

Assays:
[1] = test system: Human ovarian cancer cell line (A2780); assay: Potentiation of antitumor effect of carboplatin, A2780 subcutaneous implant (Test Example 3); assay type: in vivo, nude rats; conditions: carboplatin 50 mg/kg/day i.v. day 1, 8
Description: In the figure, the asterisk represents a result having a statistically significant difference compared with the single-drug administration group. FIG. 1 and Table 10 show the results. […] Carboplatin was prepared by diluting a […] injection (Bristol-Myers Squibb, 50 mg/5 mL) two-fold with physiological saline to enable administration at a carboplatin dose of 50 mg/kg/day. Further, the test liquid of Compound-I was prepared by adjusting its dose to 16 mg/kg/day. […] The single-drug administration group was administered 0.5% HPMC or a physiological saline as a vehicle instead of Compound-I or carboplatin. […] FIG. 5 and Table 12 show the results. […] The effect of the combined administration was also statistically determined in the same manner as in Test Example 1. In the figure and the table, the asterisk represents a result having a statistically significant difference compared with the single-drug administration group.

[2] = test system: Human ovarian cancer cell line (A2780); assay: Potentiation of antitumor effect of doxorubicin, A2780 subcutaneous implant in nude mice (Test Example 6); assay type: in vivo, BALB/cA Jcl-nu/nu mice; conditions: doxorubicin 7 mg/kg/day day 1, 8
Description: In the groups receiving only Compound-I, the test liquid was prepared by diluting Compound-I with 0.5% HPMC to enable administration at a Compound-I dose of 16 mg/kg/day. […] The effect of the combined administration was also statistically determined in the same manner as in Test Example 1.

[3] = test system: Human stomach cancer cell line (NCI-N87); assay: Potentiation of antitumor effect of everolimus, NCI-N87 subcutaneous implant in nude mice (Test Example 7); assay type: in vivo, BALB/cA Jcl-nu/nu mice; conditions: everolimus 5 mg/kg/day p.o. day 1-14
Description: As an index of antitumor effect, the TV at Day 15 was measured for each of the drug administration groups, and the relative tumor volume (RTV) relative to Day 1 and T/C (%) were calculated by the following formulas to evaluate the antitumor effect. […] In the figure, the asterisk represents a result having a statistically significant difference compared with the single-drug administration group.
FIG. 1 and Table 10 show the results. TV (mm^3)=(length×width^2)/2 RTV=(TV at Day 15)/(TV at Day 1) T/C(%)=(average RTV value of the test liquid administration group)/(average RTV value of the control group)×100
Human stomach cancer cell line (NCI-N87) was subcutaneously implanted into the right flank of 7-week-old male BALB/cA Jcl-nu/nu mice, and was used in the same manner as in Test Example 1.
In the group receiving only everolimus (IS Chemical Technology), the test liquid was prepared to enable administration at an everolimus dose of 5 mg/kg/day. A vehicle of 5% ethyl alcohol/5% PEG400/4% Tween 20/86% distilled water was used. In the groups receiving only Compound-I, the test liquid was prepared by diluting Compound-I with 0.5% HPMC to enable administration at a Compound-I dose of 16 mg/kg/day. In the combined administration group, Compound-I was administered at a dose of 16 mg/kg/day, and everolimus was administered at a dose of 5 mg/kg/day. Both Compound-I and everolimus were orally administered once a day for 14 days from Day 1, and the evaluation was performed in the same manner as in Test Example 1. FIG. 13 and Table 16 show the results.
In the figure and the table, the asterisk represents a result having a statistically significant difference compared with the single-drug administration group.

[4] = test system: Human stomach cancer cell line (NCI-N87); assay: Potentiation of antitumor effect of lapatinib, NCI-N87 subcutaneous implant in nude mice (Test Example 4); assay type: in vivo, BALB/cA Jcl-nu/nu mice; conditions: lapatinib 100 mg/kg/day p.o. day 1-14 (q.d.)
Description: In the figure, the asterisk represents a result having a statistically significant difference compared with the single-drug administration group. FIG. 1 and Table 10 show the results. […] Lapatinib was prepared by adjusting its dose to 100 mg/kg/day. Further, the test liquid of Compound-I was prepared by adjusting its dose to 16 mg/kg/day. […] The effect of the combined administration was also statistically determined in the same manner as in Test Example 1. In the figure and the table, the asterisk represents a result having a statistically significant difference compared with the single-drug administration group. FIG. 7 and Table 13 show the results.

[5] = test system: Human ovarian cancer cell line (A2780); assay: Potentiation of antitumor effect of irinotecan, A2780 subcutaneous implant in nude mice (Test Example 5); assay type: in vivo, BALB/cA Jcl-nu/nu mice; conditions: irinotecan 75 mg/kg/day day 1, 8; route printed p.o.
Description: As an index of antitumor effect, the TV at Day 15 was measured for each of the drug administration groups, and the relative tumor volume (RTV) relative to Day 1 and T/C (%) were calculated by the following formulas to evaluate the antitumor effect.
TV (mm^3)=(length×width^2)/2 RTV=(TV at Day 15)/(TV at Day 1) T/C(%)=(average RTV value of the test liquid administration group)/(average RTV value of the control group)×100
Human ovarian cancer cell line (A2780) was subcutaneously implanted into the right flank of 7-week-old male BALB/cA Jcl-nu/nu mice, and was used in the same manner as in Test Example 1. […] Further, the test liquid of Compound-I was prepared by adjusting its dose to 16 mg/kg/day.
The effect of the combined administration was also statistically determined in the same manner as in Test Example 1. […] FIG. 9 and Table 14 show the results. Further, the change in the body weight over time was evaluated as an index of toxicity in the same manner as in Test Example 1.

[6] = test system: Human stomach cancer cell line (NCI-N87); assay: Potentiation of antitumor effect of paclitaxel, NCI-N87 subcutaneous implant in nude mice (Test Example 2); assay type: in vivo, BALB/cA Jcl-nu/nu mice; conditions: paclitaxel 60 mg/kg/day i.v. day 1, 8
Description: In the figure, the asterisk represents a result having a statistically significant difference compared with the single-drug administration group. FIG. 1 and Table 10 show the results. […] Ltd.) was prepared to enable administration at a paclitaxel dose of 60 mg/kg/day. Further, test liquids for the groups receiving only Compound-I were prepared to enable administration at Compound-I doses of 8 mg/kg/day, 16 mg/kg/day, and 24 mg/kg/day. […] In the groups receiving the two drugs, Compound-I was administered at doses of 8 mg/kg/day, 16 mg/kg/day, and 24 mg/kg/day, and paclitaxel was administered at a dose of 60 mg/kg/day. The evaluation was performed in the same manner as in Test Example 1. The effect of the combined administration was also statistically determined in the same manner as in Test Example 1. In the figure and the table, the asterisk represents a result having a statistically significant difference compared with the single-drug administration group. FIG. 3 and Table 11 show the results.

[7] = test system: Human ovarian cancer A2780 cell line; assay: Potentiation of antitumor effect of paclitaxel, A2780 subcutaneous implant in nude mice (Test Example 1); assay type: in vivo, BALB/cA Jcl-nu/nu mice; conditions: paclitaxel 60 mg/kg/day i.v. day 1, 8
Description: Human ovarian cancer A2780 cell line was subcutaneously implanted into the right flank of 7-week-old male BALB/cA Jcl-nu/nu mice. After the implant, the length (mm) and the width (mm) of the tumor were measured, and the tumor volume (TV) was calculated. Thereafter, the mice were divided into groups so that the average TV is equalized in each group. The day of grouping (n=5) is referred to as Day 0. […] Test liquids for the groups receiving only Compound-I were prepared by diluting Compound-I with 0.5% hydroxypropyl methylcellulose (HPMC) so as to enable administration at a Compound-I dose of 8 mg/kg/day, 16 mg/kg/day, and 24 mg/kg/day. […] In the groups receiving the two drugs, Compound-I was administered at doses of 8 mg/kg/day, 16 mg/kg/day, and 24 mg/kg/day, and paclitaxel was administered at a dose of 60 mg/kg/day. […] In the figure, the asterisk represents a result having a statistically significant difference compared with the single-drug administration group. FIG. 1 and Table 10 show the results.

SMILES: N.N.O=C([O-])C1(C(=O)[O-])CCC1.[Pt+2] [Carboplatin, carboplatin, reference compound]
- RTV day 15 Mean ± SD [1]: 20.99 ± 4.57
- T/C (%) [1]: 82%

SMILES: COc1cccc2c1C(=O)c1c(O)c3c(c(O)c1C2=O)C[C@@](O)(C(=O)CO)C[C@@H]3O[C@H]1C[C@H](N)[C@H](O)[C@H](C)O1 [Doxorubicine, doxorubicin, reference compound]
- T/C (%) [2]: 45%

SMILES: CO[C@H]1C[C@@H]2CC[C@@H](C)[C@@](O)(O2)C(=O)C(=O)N2CCCC[C@H]2C(=O)O[C@H]([C@H](C)C[C@@H]2CC[C@@H](OCCO)[C@H](OC)C2)CC(=O)[C@H](C)/C=C(\C)[C@@H](O)[C@@H](OC)C(=O)[C@H](C)C[C@H](C)/C=C/C=C/C=C/1C [Everolimus, everolimus, reference compound]
- RTV day 15 Mean ± SD [3]: 1.32 ± 0.11
- T/C (%) [3]: 47.3%

SMILES: CS(=O)(=O)CCNCc1ccc(-c2ccc3ncnc(Nc4ccc(OCc5cccc(F)c5)c(Cl)c4)c3c2)o1 [Lapatinib, lapatinib, reference compound]
- RTV day 15 Mean ± SD [4]: 1.37 ± 0.28
- T/C (%) [4]: 51%

SMILES: CCc1c2c(nc3ccc(OC(=O)N4CCC(N5CCCCC5)CC4)cc13)-c1cc3c(c(=O)n1C2)COC(=O)[C@]3(O)CC [irinotecan, reference compound]
- RTV day 15 Mean ± SD [5]: 11.92 ± 3.68

SMILES: CC(=O)O[C@H]1C(=O)[C@@]2(C)[C@H]([C@H](OC(=O)c3ccccc3)[C@]3(O)C[C@H](OC(=O)[C@H](O)[C@@H](NC(=O)c4ccccc4)c4ccccc4)C(C)=C1C3(C)C)[C@]1(OC(C)=O)CO[C@@H]1C[C@@H]2O [paclitaxel, reference compound]
- RTV day 15 Mean ± SD [6]: 1.09 ± 0.40
- T/C (%) [6]: 32%
- RTV day 15 Mean ± SD [7]: 6.96 ± 1.41
- T/C (%) [7]: 27%
